Reference: US20250206761A1, “HALOINDOLE MACROCYCLIC COMPOUNDS FOR THE TREATMENT OF CANCER” (Hoffmann-La Roche Inc., priority 2022, published 2025)
pIC50: −log10 of the molar value.

Experiments:
[1] = target: KRAS G12D binding to BRAF (Homo sapiens (Human), UniProt P01116+P62937, G12D); assay: KRAS-BRAF with CYPA (500 nM) interaction assay (TR-FRET), G12D; format: biochemical
[2] = tested on: phosphorylation of ERK, KRAS G12C in NCJ-H358 cells; assay: pERK inhibition assay, KRAS G12C; format: cell-based, human; conditions: Homo sapiens, 4 hours
How it was run: (§1)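 Plate cells, attach overnight; add compound (0.5% DMSO) for 4 h; fix in 4% formaldehyde, permeabilize with chilled methanol; block; incubate pERK antibody overnight at 4 °C, then HRP secondary; develop with TMB, stop, read OD450; fit 4-parameter curve for IC50.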

[3] = tested on: phosphorylation of ERK, KRAS G12D in AGS cells; assay: pERK inhibition assay, KRAS G12D; format: cell-based, human; conditions: Homo sapiens, 4 hours
How it was run: as §1

[4] = tested on: cryopreserved suspension hepatocytes from human; assay: Human hepatocyte stability assay; format: in vitro ADME; conditions: for Clearance Category: human hepatocytes; for CL_hep (Human): human hepatocytes 1×10^6 cells/mL, 37° C.
Method: The hepatocyte stability assay measures the rate of disappearance of a compound from incubations with cryopreserved suspension hepatocytes from human. Positive controls, including Midazolam, Raloxifene and Dextromethorphan, are included in every experiment. Incubations consist of […] tested compound and suspension of human hepatocytes (1×10^6 cells/mL) in supplemented Williams' E Medium with 10% FBS and 0.5% Penicillin-streptomycin. The hepatocyte suspension was incubated with intermittent shaking 900 rpm at 37° C., in a 5% CO2 incubator. The reaction was stopped by adding methanol containing internal standard (2 μM Tolbutamide) at 2, 10, 20, 40, 60 and 120 minutes after compound addition, depletion of the parent compound was monitored by LC-MS/MS analysis.

KRAS G12C-BRAF complex = KRAS G12C-BRAF complex (Homo sapiens (Human), UniProt P01116+P62937, G12C); assay: KRAS-BRAF with CYPA (500 nM) interaction assay (TR-FRET), G12C; format: biochemical
[5] = GSH reaction rates (inherent GSH reactivity); format: in vitro ADME; set-up: half-life: dose or concentration left out as unconfirmed
Method: For inherent GSH reactivity determination, compounds […] were incubated at 37° C. with and without 5 mM GSH for 0, 0.5, 1, 2, 4 and 6 h in 100 mM potassium phosphate buffer at pH 7.4. At the end of the designated time points, samples were quenched with acetonitrile containing 10 mM N-ethylmaleimide and an internal standard. Quenched samples were centrifuged, and supernatants were analyzed by LC-MS/MS for compound quantification.

KRAS G12C-BRAF complex, sequence (P01116-2 other isoform, or with tags, fused parts or gaps G12C): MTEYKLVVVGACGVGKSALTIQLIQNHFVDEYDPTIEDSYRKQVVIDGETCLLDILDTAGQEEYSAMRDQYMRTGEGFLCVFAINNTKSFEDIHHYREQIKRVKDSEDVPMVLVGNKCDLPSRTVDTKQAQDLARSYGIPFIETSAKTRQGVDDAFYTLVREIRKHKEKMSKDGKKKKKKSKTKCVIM
KRAS G12C-BRAF complex, sequence (P62937 whole entry): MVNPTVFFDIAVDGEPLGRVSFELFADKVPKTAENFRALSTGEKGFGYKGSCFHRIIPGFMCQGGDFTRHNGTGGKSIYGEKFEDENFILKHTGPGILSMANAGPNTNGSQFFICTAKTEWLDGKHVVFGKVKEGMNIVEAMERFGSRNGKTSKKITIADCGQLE
KRAS G12D binding to BRAF, sequence (P01116-2 other isoform, or with tags, fused parts or gaps G12D): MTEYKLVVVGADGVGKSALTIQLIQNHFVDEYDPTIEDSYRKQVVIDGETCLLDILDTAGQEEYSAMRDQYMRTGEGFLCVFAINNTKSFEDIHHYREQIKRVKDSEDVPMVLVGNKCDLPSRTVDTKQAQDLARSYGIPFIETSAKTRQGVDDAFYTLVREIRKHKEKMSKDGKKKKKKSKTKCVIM
KRAS G12D binding to BRAF, sequence (P62937 whole entry): as the sequence (P62937 whole entry) above

SMILES	pIC50 [1]	pIC50 [2]	pIC50 [3]	Clearance Category [4]	CL_hep (Human) [4] [mL/min/kg]	pIC50 (KRAS G12C-BRAF complex)	conjugation with GSH [5]	half-life ([5]; buffer, pH 7.4) [h]	T1/2(hour) in GSH ([5]; 5 mM GSH, 37° C., 100 mM potassium phosphate buffer pH 7.4, up to 6 h)	Remaining at 6 hr in GSH (%) ([5]; 5 mM GSH, 37° C., pH 7.4, 6 hr)
CC(C)[C@@H](C(=O)N[C@H]1Cc2cc(O)cc(c2)-c2ccc3c(C(C)(C)C#N)cn(c3c2)CC(C)(C)COC(=O)[C@@H]2CCCN(N2)C1=O)N1CCC2(CN(C(=O)CCl)C2)C1=O [RM44, reference compound]	< 5.00	5.72	< 5.00	medium (16.24>CL_hep (mL/min/kg)>6.96 is medium clearance)	14.7	7.77	formed conjugation with GSH	8.9	–	–
CCn1c(-c2cc(N3CCN(CC(F)(F)F)CC3)cnc2[C@H](C)OC)c2c3cc(c(F)cc31)-c1csc(n1)C[C@H](NC(=O)[C@H](C(C)C)N1CCC3(CN(C(=O)[C@H](F)Cl)C3)C1=O)C(=O)N1CCC[C@H](N1)C(=O)OCC(C)(C)C2 (atropisomer, axis not shown; (M)) [Example 37, (2S)-2-[2-[(2R)-2-chloro-2-fluoro-acetyl]-5-oxo-2,6-diazaspiro[3.4]octan-6-yl]-N-[(7S,13S)-21-ethyl-24-fluoro-(20M)-20-[2-[(1S)-1-methoxyethyl]-5-[4-(2,2,2-trifluoroethyl)piperazin-1-yl]-3-pyridyl]-17,17-dimethyl-8,14-dioxo-15-oxa-4-thia-9,21,27,28-tetrazapentacyclo[17.5.2.1^2,5.1^9,13.0^22,26]octacosa-1(25),2,5(28),19,22(26),23-hexaen-7-yl]-3-methyl-butanamide]	6.02	8.52	–	low (CL_hep (mL/min/kg)<6.96 is low clearance)	2.4	7.41	–	–	stable (If % depletion after 6 hour incubation is less than 20%, compounds were reported as stable)	100
